How the values were obtained:
[1] = molecular target: Sodium-dependent serotonin transporter (Homo sapiens, UniProt P31645); assay: biochemical; type: cell-based, HEK293
[2] = molecular target: Sodium-dependent noradrenaline transporter (Homo sapiens, UniProt P23975); assay: Displacement of [125I]RTI55 from cloned human NET expressed in HEK293 cells; type: cell-based
Rattus norvegicus [3] = assay: Effect on behavioural activity in rat assessed as cocaine-induced lever response at 5 mg/kg, ip pretreated with cocaine for 15 mins by drug-discrimination studies; type: functional; settings: route intraperitoneal
Rattus norvegicus [4] = assay: Effect on behavioural activity in rat assessed as cocaine-induced lever response at 10 mg/kg, ip pretreated with cocaine for 15 mins by drug-discrimination studies; type: functional; settings: route intraperitoneal
Rattus norvegicus [5] = assay: Effect on behavioural activity in rat assessed as cocaine-induced lever response at 25 mg/kg, ip pretreated with cocaine for 15 mins by drug-discrimination studies; type: functional; settings: route intraperitoneal
Rattus norvegicus [6] = assay: Effect on behavioural activity in rat assessed as cocaine-induced lever response at 100 mg/kg, ip pretreated with cocaine for 15 mins by drug-discrimination studies; type: functional; settings: route intraperitoneal
Rattus norvegicus [7] = assay: Effect on behavioural activity in rat assessed as cocaine-induced lever response at 1 mg/kg, po pretreated with cocaine for 41 mins by drug-discrimination studies; type: functional
Rattus norvegicus [8] = assay: Effect on behavioural activity in rat assessed as cocaine-induced lever response at 1 mg/kg, po pretreated with cocaine for 90 mins by drug-discrimination studies; type: functional
Rattus norvegicus [9] = assay: Effect on behavioural activity in rat assessed as cocaine-induced lever response at 1 mg/kg, po pretreated with cocaine for 180 mins by drug-discrimination studies; type: functional
Rattus norvegicus [10] = assay: Effect on behavioural activity in rat assessed as cocaine-induced lever response at 1 mg/kg, po pretreated with cocaine for 360 mins by drug-discrimination studies; type: functional
Rattus norvegicus [11] = assay: Effect on behavioural activity in ip dosed rat assessed as cocaine-induced lever response pretreated with cocaine by drug-discrimination studies; type: functional
Rattus norvegicus [12] = assay: Effect on behavioural activity in rat assessed as cocaine-induced lever response at 2.5 mg/kg, po pretreated with cocaine for 45 mins by drug-discrimination studies; type: functional
Rattus norvegicus [13] = assay: Effect on behavioural activity in rat assessed as cocaine-induced lever response at 2.5 mg/kg, po pretreated with cocaine for 90 mins by drug-discrimination studies; type: functional
Rattus norvegicus [14] = assay: Effect on behavioural activity in rat assessed as cocaine-induced lever response at 2.5 mg/kg, po pretreated with cocaine for 180 mins by drug-discrimination studies; type: functional
Rattus norvegicus [15] = assay: Effect on behavioural activity in rat assessed as cocaine-induced lever response at 2.5 mg/kg, po pretreated with cocaine for 360 mins by drug-discrimination studies; type: functional
Rattus norvegicus [16] = assay: Effect on behavioural activity in rat assessed as cocaine-induced lever response at 5 mg/kg, po pretreated with cocaine for 45 mins by drug-discrimination studies; type: functional
Rattus norvegicus [17] = assay: Effect on behavioural activity in rat assessed as cocaine-induced lever response at 5 mg/kg, po pretreated with cocaine for 90 mins by drug-discrimination studies; type: functional
Rattus norvegicus [18] = assay: Effect on behavioural activity in rat assessed as cocaine-induced lever response at 5 mg/kg, po pretreated with cocaine for 180 mins by drug-discrimination studies; type: functional
Rattus norvegicus [19] = assay: Effect on behavioural activity in rat assessed as cocaine-induced lever response at 5 mg/kg, po pretreated with cocaine for 360 mins by drug-discrimination studies; type: functional
Rattus norvegicus [20] = assay: Effect on behavioural activity in rat assessed as cocaine-induced lever response at 10 mg/kg, po pretreated with cocaine for 45 mins by drug-discrimination studies; type: functional
Rattus norvegicus [21] = assay: Effect on behavioural activity in rat assessed as cocaine-induced lever response at 10 mg/kg, po pretreated with cocaine for 90 mins by drug-discrimination studies; type: functional
Rattus norvegicus [22] = assay: Effect on behavioural activity in rat assessed as cocaine-induced lever response at 10 mg/kg, po pretreated with cocaine for 360 mins by drug-discrimination studies; type: functional
Mus musculus [23] = assay: Antidepressant activity in ip dosed mouse assessed as stimulation of locomotor activity; type: functional
Mus musculus [24] = assay: Antidepressant activity in ip dosed mouse assessed as stimulation of locomotor activity relative to cocaine; type: functional
Mus musculus [25] = assay: Antidepressant activity in ip dosed mouse assessed as time to reach peak stimulation of locomotor activity; type: functional
Mus musculus [26] = assay: Antidepressant activity in ip dosed mouse assessed as duration of locomotor activity; type: functional
Rattus norvegicus [27] = assay: Effect on behavioural activity in rat assessed as cocaine-induced lever response at 2.5 mg/kg, ip pretreated with cocaine for 15 mins by drug-discrimination studies; type: functional; settings: route intraperitoneal
Rattus norvegicus [28] = assay: Effect on behavioural activity in po dosed rat assessed as cocaine-induced lever response pretreated with cocaine by drug-discrimination studies; type: functional
Rattus norvegicus [29] = assay: Effect on behavioural activity in rat assessed as cocaine-induced lever response at 20 mg/kg, po pretreated with cocaine for 45 mins by drug-discrimination studies; type: functional
Rattus norvegicus [30] = assay: Effect on behavioural activity in rat assessed as cocaine-induced lever response at 20 mg/kg, po pretreated with cocaine for 90 mins by drug-discrimination studies; type: functional
Rattus norvegicus [31] = assay: Effect on behavioural activity in rat assessed as cocaine-induced lever response at 20 mg/kg, po pretreated with cocaine for 180 mins by drug-discrimination studies; type: functional
Rattus norvegicus [32] = assay: Effect on behavioural activity in rat assessed as cocaine-induced lever response at 20 mg/kg, po pretreated with cocaine for 360 mins by drug-discrimination studies; type: functional
Rattus norvegicus [33] = assay: Effect on behavioural activity in rat assessed as cocaine-induced lever response at 40 mg/kg, po pretreated with cocaine for 45 mins by drug-discrimination studies; type: functional
Rattus norvegicus [34] = assay: Effect on behavioural activity in rat assessed as cocaine-induced lever response at 40 mg/kg, po pretreated with cocaine for 90 mins by drug-discrimination studies; type: functional
Rattus norvegicus [35] = assay: Effect on behavioural activity in rat assessed as cocaine-induced lever response at 40 mg/kg, po pretreated with cocaine for 180 mins by drug-discrimination studies; type: functional
Rattus norvegicus [36] = assay: Effect on behavioural activity in rat assessed as cocaine-induced lever response at 40 mg/kg, po pretreated with cocaine for 360 mins by drug-discrimination studies; type: functional
Rattus norvegicus [37] = assay: Effect on behavioural activity in rat assessed as cocaine-induced lever response at 80 mg/kg, po pretreated with cocaine for 45 mins by drug-discrimination studies; type: functional
Rattus norvegicus [38] = assay: Effect on behavioural activity in rat assessed as cocaine-induced lever response at 80 mg/kg, po pretreated with cocaine for 90 mins by drug-discrimination studies; type: functional
Rattus norvegicus [39] = assay: Effect on behavioural activity in rat assessed as cocaine-induced lever response at 80 mg/kg, po pretreated with cocaine for 180 mins by drug-discrimination studies; type: functional
Rattus norvegicus [40] = assay: Effect on behavioural activity in rat assessed as cocaine-induced lever response at 80 mg/kg, po pretreated with cocaine for 360 mins by drug-discrimination studies; type: functional
Rattus norvegicus [41] = assay: Effect on behavioural activity in rat assessed as cocaine-induced lever response at 0.5 mg/kg, ip pretreated with cocaine for 15 mins by drug-discrimination studies; type: functional; settings: route intraperitoneal
Rattus norvegicus [42] = assay: Effect on behavioural activity in rat assessed as cocaine-induced lever response at 0.1 mg/kg, ip pretreated with cocaine for 15 mins by drug-discrimination studies; type: functional; settings: route intraperitoneal
Rattus norvegicus [43] = assay: Effect on behavioural activity in rat assessed as cocaine-induced lever response at 0.25 mg/kg, ip pretreated with cocaine for 15 mins by drug-discrimination studies; type: functional; settings: route intraperitoneal
Rattus norvegicus [44] = assay: Effect on behavioural activity in rat assessed as cocaine-induced lever response at 10 mg/kg, po pretreated with cocaine for 180 mins by drug-discrimination studies; type: functional
Rattus norvegicus [45] = assay: Effect on behavioural activity in rat assessed as cocaine-induced lever response at 25 mg/kg, po pretreated with cocaine for 45 mins by drug-discrimination studies; type: functional
Rattus norvegicus [46] = assay: Effect on behavioural activity in rat assessed as cocaine-induced lever response at 25 mg/kg, po pretreated with cocaine for 90 mins by drug-discrimination studies; type: functional
Rattus norvegicus [47] = assay: Effect on behavioural activity in rat assessed as cocaine-induced lever response at 25 mg/kg, po pretreated with cocaine for 180 mins by drug-discrimination studies; type: functional
Rattus norvegicus [48] = assay: Effect on behavioural activity in rat assessed as cocaine-induced lever response at 25 mg/kg, po pretreated with cocaine for 360 mins by drug-discrimination studies; type: functional
Rattus norvegicus [49] = assay: Effect on behavioural activity in rat assessed as cocaine-induced lever response at 1 mg/kg, ip pretreated with cocaine for 15 mins by drug-discrimination studies; type: functional; settings: route intraperitoneal
Rattus norvegicus [50] = assay: Effect on behavioural activity in rat assessed as cocaine-induced lever response at 0.25 mg/kg, po pretreated with cocaine for 45 mins by drug-discrimination studies; type: functional
Rattus norvegicus [51] = assay: Effect on behavioural activity in rat assessed as cocaine-induced lever response at 0.25 mg/kg, po pretreated with cocaine for 90 mins by drug-discrimination studies; type: functional
Rattus norvegicus [52] = assay: Effect on behavioural activity in rat assessed as cocaine-induced lever response at 0.25 mg/kg, po pretreated with cocaine for 180 mins by drug-discrimination studies; type: functional
Rattus norvegicus [53] = assay: Effect on behavioural activity in rat assessed as cocaine-induced lever response at 0.25 mg/kg, po pretreated with cocaine for 360 mins by drug-discrimination studies; type: functional
Rattus norvegicus [54] = assay: Effect on behavioural activity in rat assessed as cocaine-induced lever response at 0.5 mg/kg, po pretreated with cocaine for 45 mins by drug-discrimination studies; type: functional
Rattus norvegicus [55] = assay: Effect on behavioural activity in rat assessed as cocaine-induced lever response at 0.5 mg/kg, po pretreated with cocaine for 90 mins by drug-discrimination studies; type: functional
Rattus norvegicus [56] = assay: Effect on behavioural activity in rat assessed as cocaine-induced lever response at 0.5 mg/kg, po pretreated with cocaine for 180 mins by drug-discrimination studies; type: functional
Rattus norvegicus [57] = assay: Effect on behavioural activity in rat assessed as cocaine-induced lever response at 0.5 mg/kg, po pretreated with cocaine for 360 mins by drug-discrimination studies; type: functional

Sodium-dependent serotonin transporter, sequence (P31645 whole entry): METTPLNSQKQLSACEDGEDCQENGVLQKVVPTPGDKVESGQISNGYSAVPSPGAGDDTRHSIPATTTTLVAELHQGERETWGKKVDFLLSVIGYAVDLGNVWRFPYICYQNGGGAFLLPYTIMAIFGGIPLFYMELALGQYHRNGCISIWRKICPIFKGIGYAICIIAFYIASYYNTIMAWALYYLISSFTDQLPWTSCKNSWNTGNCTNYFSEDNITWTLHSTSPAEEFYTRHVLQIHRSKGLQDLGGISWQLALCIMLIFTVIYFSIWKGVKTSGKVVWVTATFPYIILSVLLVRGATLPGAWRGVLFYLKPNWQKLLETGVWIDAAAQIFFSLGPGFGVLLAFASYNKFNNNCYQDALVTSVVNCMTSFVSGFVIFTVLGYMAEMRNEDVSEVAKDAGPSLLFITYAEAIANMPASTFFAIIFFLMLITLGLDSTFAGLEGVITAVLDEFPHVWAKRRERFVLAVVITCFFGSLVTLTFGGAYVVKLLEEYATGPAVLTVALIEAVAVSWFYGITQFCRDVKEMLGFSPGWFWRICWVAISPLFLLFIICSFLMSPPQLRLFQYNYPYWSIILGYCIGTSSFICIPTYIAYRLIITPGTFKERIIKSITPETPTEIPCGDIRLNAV
Sodium-dependent noradrenaline transporter, sequence (P23975 whole entry): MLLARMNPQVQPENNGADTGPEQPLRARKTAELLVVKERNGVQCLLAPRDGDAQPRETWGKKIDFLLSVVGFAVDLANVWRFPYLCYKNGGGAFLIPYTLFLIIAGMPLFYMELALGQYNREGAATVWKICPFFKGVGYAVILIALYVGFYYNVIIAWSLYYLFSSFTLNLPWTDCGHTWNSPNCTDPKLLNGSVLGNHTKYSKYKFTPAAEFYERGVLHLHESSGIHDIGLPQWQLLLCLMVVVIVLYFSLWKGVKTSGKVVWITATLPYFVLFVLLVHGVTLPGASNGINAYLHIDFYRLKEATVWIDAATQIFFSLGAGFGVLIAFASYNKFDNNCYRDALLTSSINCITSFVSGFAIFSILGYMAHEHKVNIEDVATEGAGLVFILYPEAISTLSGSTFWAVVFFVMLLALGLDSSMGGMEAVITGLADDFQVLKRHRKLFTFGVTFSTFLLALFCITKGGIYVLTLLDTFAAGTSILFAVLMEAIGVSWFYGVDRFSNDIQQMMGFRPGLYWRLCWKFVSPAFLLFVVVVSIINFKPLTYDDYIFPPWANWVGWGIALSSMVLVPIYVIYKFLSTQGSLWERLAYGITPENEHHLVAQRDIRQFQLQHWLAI

CC(NC(C)(C)C)C(=O)c1ccc(Cl)cc1 (stereo not given)
Ki [1]: > 10 µM
Ki [2]: > 10 µM
Activity (Rattus norvegicus [3]): 0.1%
Activity (Rattus norvegicus [4]): 32.7%
Activity (Rattus norvegicus [5]): 18.1%
Activity (Rattus norvegicus [6]): 33.3%
Activity (Rattus norvegicus [7]): 0%
Activity (Rattus norvegicus [8]): 0%
Activity (Rattus norvegicus [9]): 0%
Activity (Rattus norvegicus [10]): 0%

CCCC(NC(C)(C)C)C(=O)c1cccc(Cl)c1 (stereo not given)
ED50 (Rattus norvegicus [11]): 7.8 mg/kg
Activity (Rattus norvegicus [12]): 0%
Activity (Rattus norvegicus [13]): 0%
Activity (Rattus norvegicus [14]): 0%
Activity (Rattus norvegicus [15]): 0%
Activity (Rattus norvegicus [16]): 17%
Activity (Rattus norvegicus [17]): 0%
Activity (Rattus norvegicus [18]): 22%
Activity (Rattus norvegicus [19]): 0%
Activity (Rattus norvegicus [20]): 33%
Activity (Rattus norvegicus [21]): 0%
Activity (Rattus norvegicus [22]): 0%
Ki [1]: > 10 µM
ED50 (Mus musculus [23]): 15.5 mg/kg
Activity (Mus musculus [24]): 108%
Time to peak locomotor stimulation (Mus musculus [25]): 90 min
Time (Mus musculus [26]): 210 min
Activity (Rattus norvegicus [27]): 0.2%
Activity (Rattus norvegicus [3]): 17.2%
Activity (Rattus norvegicus [4]): 33.3%
Activity (Rattus norvegicus [5]): 83.3%
ED50 (Rattus norvegicus [28]): 23.2 mg/kg
Activity (Rattus norvegicus [29]): 33%
Activity (Rattus norvegicus [30]): 33%
Activity (Rattus norvegicus [31]): 0%
Activity (Rattus norvegicus [32]): 0%
Activity (Rattus norvegicus [33]): 50%
Activity (Rattus norvegicus [34]): 17%
Activity (Rattus norvegicus [35]): 17%
Activity (Rattus norvegicus [36]): 16%
Activity (Rattus norvegicus [37]): 100%
Activity (Rattus norvegicus [38]): 100%
Activity (Rattus norvegicus [39]): 50%
Activity (Rattus norvegicus [40]): 1%

CC(NC1CC1)C(=O)c1cccc(Cl)c1 (stereo not given)
Activity (Rattus norvegicus [41]): 63%
Activity (Rattus norvegicus [42]): 9%
Activity (Rattus norvegicus [43]): 24%
Activity (Rattus norvegicus [12]): 34%
Activity (Rattus norvegicus [13]): 0%
Activity (Rattus norvegicus [14]): 34%
Activity (Rattus norvegicus [15]): 0%
Activity (Rattus norvegicus [16]): 34%
Activity (Rattus norvegicus [17]): 0%
Activity (Rattus norvegicus [18]): 0%
Activity (Rattus norvegicus [19]): 0%
Activity (Rattus norvegicus [20]): 74%
Activity (Rattus norvegicus [21]): 33%
Activity (Rattus norvegicus [44]): 33%
Activity (Rattus norvegicus [22]): 0%
Activity (Rattus norvegicus [45]): 67%
Activity (Rattus norvegicus [46]): 83%
Activity (Rattus norvegicus [47]): 99%
Activity (Rattus norvegicus [48]): 0%
ED50 (Mus musculus [23]): 16.6 mg/kg
Activity (Mus musculus [24]): 82%
Time to peak locomotor stimulation (Mus musculus [25]): 0 min
Time (Mus musculus [26]): 350 min
Activity (Rattus norvegicus [49]): 21.5%
Activity (Rattus norvegicus [27]): 39.5%
Activity (Rattus norvegicus [3]): 67.2%
Activity (Rattus norvegicus [4]): 66.7%
Activity (Rattus norvegicus [5]): 66.3%
ED50 (Rattus norvegicus [28]): 12.8 mg/kg
Activity (Rattus norvegicus [50]): 0%
Activity (Rattus norvegicus [51]): 0%
Activity (Rattus norvegicus [52]): 0%
Activity (Rattus norvegicus [53]): 34%
Activity (Rattus norvegicus [54]): 1%
Activity (Rattus norvegicus [55]): 16%
Activity (Rattus norvegicus [56]): 0%
Activity (Rattus norvegicus [57]): 2%
Activity (Rattus norvegicus [7]): 0%
Activity (Rattus norvegicus [8]): 0%
Activity (Rattus norvegicus [9]): 0%
Activity (Rattus norvegicus [10]): 0%
